Literature values in patent US8946410B2, “Automated radiosynthesis” (GE Healthcare Limited, priority 2009, dated 2015).

Biological target: GABAA receptor
Details: GABAA receptor affinity, related art

CCOC(=O)c1ncn2c1CN(C)C(=O)c1cc([18F])ccc1-2 [[^18F]FMZ, [^18F]Flumazenil]
Ki: ~500 pM
